Laboratory results reported in the NIST ThermoML archive (doi:10.1021/je3011979).
± gives the expanded uncertainty stated by the source.

Tests used:
[1] = Liquid; for mass density: 101 kPa, Vibrating tube method; for vapor or sublimation pressure: Ebulliometric method (Recirculating still)
[2] = refractive index (Na D-line) (dimensionless); details: 101.33 kPa, Liquid, Standard Abbe refractometry
[3] = xn = mol fraction of the nth substance listed; details: 101 kPa, Liquid, Vibrating tube method, x1 = 1

CCCOC(C)=O [propyl ethanoate]
Details | mass density [kg/m3] | refractive index | vapor or sublimation pressure [kPa]
[1], 291.15 K | 889.6 ± 0.2 | – | –
[1], 298.15 K | 882.5 ± 0.2 | – | –
[1], 318.15 K | 859.8 ± 0.2 | – | –
[1], 318.35 K | – | – | 12.14 ± 0.04
[1], 322.19 K | – | – | 14.43 ± 0.05
[1], 325.87 K | – | – | 17.04 ± 0.05
[1], 328.15 K | 848.3 ± 0.2 | – | –
[1], 328.95 K | – | – | 19.43 ± 0.05
[1], 331.59 K | – | – | 21.77 ± 0.05
[1], 334.22 K | – | – | 24.29 ± 0.05
[1], 336.6 K | – | – | 26.79 ± 0.05
[1], 338.75 K | – | – | 29.12 ± 0.06
[1], 340.72 K | – | – | 31.53 ± 0.06
[1], 342.66 K | – | – | 33.96 ± 0.06
[1], 344.52 K | – | – | 36.46 ± 0.06
[1], 346.15 K | – | – | 38.78 ± 0.06
[1], 347.73 K | – | – | 41.14 ± 0.07
[1], 349.35 K | – | – | 43.69 ± 0.07
[1], 350.81 K | – | – | 46.08 ± 0.07
[1], 352.19 K | – | – | 48.41 ± 0.07
[1], 353.57 K | – | – | 50.84 ± 0.08
[1], 354.78 K | – | – | 53.11 ± 0.08
[1], 356.03 K | – | – | 55.48 ± 0.08
[1], 357.29 K | – | – | 57.96 ± 0.08
[1], 358.41 K | – | – | 60.24 ± 0.08
[1], 359.52 K | – | – | 62.59 ± 0.09
[1], 360.63 K | – | – | 65 ± 0.09
[1], 361.71 K | – | – | 67.41 ± 0.09
[1], 362.73 K | – | – | 69.74 ± 0.09
[1], 363.81 K | – | – | 72.28 ± 0.1
[1], 364.84 K | – | – | 74.8 ± 0.1
[1], 365.86 K | – | – | 77.35 ± 0.1
[1], 366.81 K | – | – | 79.8 ± 0.1
[1], 367.7 K | – | – | 82.11 ± 0.11
[1], 368.62 K | – | – | 84.58 ± 0.11
[1], 369.51 K | – | – | 87.01 ± 0.11
[1], 370.41 K | – | – | 89.57 ± 0.11
[1], 371.18 K | – | – | 91.8 ± 0.12
[1], 371.99 K | – | – | 94.17 ± 0.12
[1], 372.78 K | – | – | 96.55 ± 0.12
[1], 373.55 K | – | – | 98.87 ± 0.12
[1], 373.97 K | – | – | 100.18 ± 0.12
[1], 374.34 K | – | – | 101.32 ± 0.46
[1], 374.52 K | – | – | 101.32 ± 0.13
[1], 375.1 K | – | – | 103.76 ± 0.14
[1], 375.78 K | – | – | 106.19 ± 0.13
[1], 376.51 K | – | – | 108.56 ± 0.13
[1], 377.29 K | – | – | 111.14 ± 0.14
[1], 377.98 K | – | – | 113.47 ± 0.14
[1], 378.69 K | – | – | 115.96 ± 0.14
[1], 379.36 K | – | – | 118.3 ± 0.14
[1], 380.04 K | – | – | 120.71 ± 0.15
[1], 380.74 K | – | – | 123.19 ± 0.15
[1], 381.41 K | – | – | 125.61 ± 0.15
[1], 382.06 K | – | – | 128.01 ± 0.15
[1], 382.71 K | – | – | 130.42 ± 0.16
[1], 383.34 K | – | – | 132.85 ± 0.16
[1], 384.01 K | – | – | 135.42 ± 0.16
[1], 384.55 K | – | – | 137.67 ± 0.16
[1], 385.18 K | – | – | 140.04 ± 0.17
[1], 385.79 K | – | – | 142.47 ± 0.17
[1], 386.36 K | – | – | 144.8 ± 0.17
[1], 386.9 K | – | – | 147.09 ± 0.17
[1], 387.49 K | – | – | 149.51 ± 0.18
[1], 388.06 K | – | – | 151.96 ± 0.18
[1], 388.63 K | – | – | 154.37 ± 0.18
[1], 389.16 K | – | – | 156.68 ± 0.19
[1], 389.68 K | – | – | 158.99 ± 0.19
[1], 390.18 K | – | – | 161.23 ± 0.19
[1], 390.68 K | – | – | 163.46 ± 0.19
[1], 391.22 K | – | – | 165.89 ± 0.19
[1], 391.7 K | – | – | 168.13 ± 0.2
[1], 392.24 K | – | – | 170.62 ± 0.2
[1], 392.73 K | – | – | 172.98 ± 0.2
[1], 393.23 K | – | – | 175.35 ± 0.2
[1], 393.71 K | – | – | 177.64 ± 0.21
[1], 394.16 K | – | – | 180.01 ± 0.21
[1], 394.66 K | – | – | 182.44 ± 0.21
[1], 395.17 K | – | – | 185.03 ± 0.22
[1], 395.67 K | – | – | 187.59 ± 0.22
[1], 396.16 K | – | – | 190.1 ± 0.22
[1], 396.69 K | – | – | 192.76 ± 0.22
[2], 298.15 K | – | 1.3818 ± 0.0005 | –
[2], 318.15 K | – | 1.372 ± 0.0005 | –

CCCOC(C)=O [propyl ethanoate] + CCCCC
[3]
Details | mass density [kg/m3]
291.15 K | 889.6 ± 0.2
298.15 K | 882.5 ± 0.2
